From publication PMC12150632, “Chalcones inhibit firefly bioluminescence dependent on A and B-ring substitution pattern – a structure-activity study combined with molecular docking” (Journal of Enzyme Inhibition and Medicinal Chemistry, 2025)

Molecular target: T1, firefly luciferase (FLuc) (Photinus pyralis, UniProt P08659)
T1 construct: purchased Sigma-Aldrich; host or cells: E. coli
Experiment: Inhibition assay of luciferase (purified recombinant enzyme, bioluminescence readout)
Format: biochemical
Details: n = 3; for IC50: sigmoidal fit, concentration series 100 µM to 13 nM and 300 µM to 0.41 nM; for Inhibition (%) of FLuc: compound concentration 10 µM; for Inhibition (%) of FLuc / inhibition at 10 µM: relative to DMSO vehicle control; for inhibition at 10 µM: read-out: Inhibition (%) of FLuc, compound concentration 10 µM
Method: 25 µL of luciferase protein (c = 0.6 µg/mL, Sigma-Aldrich, recombinant expressed in E.coli) in Trisbuffer (10 mM Tris, 10 mM KCl, 1 mM EGTA, 30% glycerol) pH7.4 were added to each well of a white 96 well plate (Brand). The compounds were added in 1 µL DMSO at various concentrations. After incubation of the enzyme with the compounds for 10 min at room temperature, 80 µL of FLuc buffer (25 mM glycylglycin, 4 mM EGTA, 15 mM MgSO4, 15 mM PPB) was added and the light signal was immediately measured using a multiplate reader (Clariostar, BMG) with a gain of 2500 and a measurement interval time of 2 s. Inhibition was calculated in relation to the control, enzyme treated with vehicle (DMSO).
OriginPro 2021b (64-bit) SR2 (9.8.5.212) (OriginLab) was used to determine the inhibition and IC50 values and prepare the figures. The IC50 values were calculated from the sigmoidal fit of the log scale concentration without fixing the parameters.
The inhibitory activity of all chalcones was evaluated at a concentration of 10 µM on purified recombinant firefly luciferase, as this concentration would also be used in the reporter gene assay to determine neurogenic activity.
To obtain the IC50 values and construct a concentration-response curve, chalcones were measured in the assay using a series of decreasing concentrations, ranging from 100 µM to 13 nM and from 300 µM to 0.41 nM.

T1 sequence (P08659 whole entry): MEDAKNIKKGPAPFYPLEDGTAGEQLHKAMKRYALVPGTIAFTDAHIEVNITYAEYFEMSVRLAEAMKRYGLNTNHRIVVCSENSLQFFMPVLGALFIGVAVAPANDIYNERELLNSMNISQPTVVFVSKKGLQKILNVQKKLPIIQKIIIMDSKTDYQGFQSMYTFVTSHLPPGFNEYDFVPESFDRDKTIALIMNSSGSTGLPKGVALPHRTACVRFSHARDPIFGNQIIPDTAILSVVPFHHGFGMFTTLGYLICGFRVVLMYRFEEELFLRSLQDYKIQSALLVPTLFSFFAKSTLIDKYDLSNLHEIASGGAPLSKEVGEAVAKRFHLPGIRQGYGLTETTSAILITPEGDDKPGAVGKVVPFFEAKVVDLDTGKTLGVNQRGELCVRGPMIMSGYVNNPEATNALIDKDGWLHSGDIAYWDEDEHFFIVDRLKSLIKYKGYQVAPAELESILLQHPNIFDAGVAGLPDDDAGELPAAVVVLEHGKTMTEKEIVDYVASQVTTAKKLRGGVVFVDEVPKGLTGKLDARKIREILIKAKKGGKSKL

Compound | inhibition at 10 µM | Inhibition (%) of FLuc | further results
O=C(O)c1cccc(-c2noc(-c3ccccc3F)n2)c1 [Ataluren, reference compound] |  |  | IC50: 0.11 µM
CC1(C)C=Cc2cc(C(=O)/C=C/c3ccc(O)cc3)ccc2O1 [Compound 2, (E)-1–(2,2dimethyl-2H-chromen-6-yl)-3–(4-hydroxyphenyl)prop-2-en-1-one] | 30% |  | Inhibition (%) of FLuc (10 µM): 32%
COc1cc2c(cc1C(=O)/C=C/c1ccc(O)cc1)C=CC(C)(C)O2 [Compound 3, (E)-3–(4-hydroxyphenyl)-1–(7-methoxy-2,2-dimethyl-2H-chromen-6-yl)prop-2-en-1-one] | < 5% |  | 
CC1(C)C=Cc2c(ccc(C(=O)/C=C/c3ccc(O)cc3)c2O)O1 [Compound 4, (E)-1–(5-hydroxy-2,2-dimethyl-2H-chromen-6-yl)-3–(4-hydroxyphenyl)prop-2-en-1-one] | < 10% |  | 
CC1(C)C=Cc2cc(C(=O)/C=C/c3ccc(O)cc3)c(O)cc2O1 [Compound 5, (E)-1–(7-hydroxy-2,2-dimethyl-2H-chromen-6-yl)-3–(4-hydroxyphenyl)prop-2-en-1-one] | < 5% |  | 
CC1(C)C=Cc2cc(C(=O)/C=C/c3ccc(O)cc3)ccc2N1 [Compound 6, (E)-1–(2,2-dimethyl-1,2-dihydroquinolin-6-yl)-3–(4-hydroxyphenyl)prop-2-en-1-one] | 18% |  | 
CC1(C)C=Cc2cc(C(=O)/C=C/c3ccc(N)cc3)ccc2O1 [Compound 8, (E)-3–(4-aminophenyl)-1–(2,2-dimethyl-2H-chromen-6-yl)prop-2-en-1-one] |  | comparable to that of the hydroxyl group | 
CC1(C)C=Cc2cc(C(=O)/C=C/c3ccc(Cl)cc3)ccc2O1 [Compound 12, (E)-3–(4-chlorphenyl)-1–(2,2-dimethyl-2H-chromen-6-yl)prop-2-en-1-one] |  | near-complete elimination of the inhibitory effect | 
CC1(C)C=Cc2cc(C(=O)/C=C/c3ccc(C(F)(F)F)cc3)ccc2O1 [Compound 13, (E)-1–(2,2-dihmethyl-2H-chromen-6-yl)-3–(4-(trifluoromethyl)phenyl)prop-2-en-1-one] |  | near-complete elimination of the inhibitory effect | 
CC1(C)C=Cc2cc(C(=O)/C=C/c3ccccc3)ccc2O1 [Compound 14, (E)-1–(2,2-dimethyl-2H-chromen-6-yl)-3-phenylprop-2-en-1-one] |  | most pronounced inhibitory effect | IC50: < 10 µM
CC1(C)C=Cc2cc(C(=O)/C=C/c3cccc(O)c3O)ccc2O1 [Compound 18, (E)-3–(2,3-dihydroxyphenyl)-1–(2,2-dimethyl-2H-chromen-6-yl)prop-2-en-1-one] |  |  | IC50: < 10 µM
(E)-1–(2,2-dimethyl-2H-thiochromen-6-yl)-3–(4-methoxyphenyl)prop-2-en-1-one [Compound 7] |  | less than 10% | 
(E)-1–(7-hydroxy-5-methoxy-2,2-dimethyl-2H-chromen-6-yl)-3–(4-hydroxyphenyl)prop-2-en-1-one [Compound 1] |  |  | Inhibition (%) of FLuc (10 µM): no inhibition; Inhibition (%) of FLuc (listed as xanthohumol C, 10 µM): no inhibitory effect
